# From the COVID Moonshot data (paper PMC7615835)
# Values joined by “and” are separate entries in the source; they are usually repeats but may differ in a detail not shown here. Equal values may be shown once.
# Target: SARS-CoV-2 Main Protease (SARS-CoV-2) (UniProt P0DTD1)
row,SMILES,IC50
1,O=C(Cc1cccc(Cl)c1)Nc1cncc2c1NCCC2,38 µM
2,CN1CCn2nc(C(=O)N(c3ccc(C(C)(C)C)cc3)C(C(=O)NCCc3cccc(F)c3)c3cccnc3)cc2S1(=O)=O (stereo not given),> 99.5 µM
3,Cc1ccncc1NC(=O)Cc1cc(Cl)cc(NS(N)(=O)=O)c1,11.3 µM
4,COc1cc(C)ccc1N(C(=O)c1ccco1)C(C(=O)NCCc1cccc(F)c1)c1cccnc1 (stereo not given),> 99.5 µM
5,O=C(NCc1ccccn1)[C@@H]1CN(C(=O)CCl)CCN1S(=O)(=O)c1ccsc1 (stereo in doubt),0.542 µM
6,O=C(CCl)N1CCN(C(c2ccccc2)C2CCOCC2)CC1 (stereo not given),28.4 µM and 15.1 µM
7,O=C1N(c2cncc3ccccc23)CCC12CN(S(=O)(=O)N1CCC1)Cc1ccc(Cl)cc12 (stereo not given),0.33 µM
8,CCCCn1nnnc1CNC1CCc2nc(C(C)C)nn2C1 (stereo not given),> 99.5 µM
9,C=CC(=O)N(Cc1ccccc1Cl)C(C(=O)NC(C)(C)C)c1cccnc1 (stereo not given),> 99.5 µM
10,CC(C)(C)c1ccc(N(C(=O)c2cocn2)C(C(=O)NCCc2cnc[nH]2)c2cccnc2)cc1 (stereo not given),14.5 µM
11,C=CC(=O)N1CCN(S(=O)(=O)c2ccccc2)CC1,> 99.5 µM
12,COc1ccccc1OCCNC(=O)c1cc(=O)cc[nH]1,> 99.5 µM
13,O=C(Cc1cccc(Cl)c1)Nc1cncc2oncc12,50.6 µM
14,O=C(Cc1cccc(Cl)c1)Nc1cncc2sccc12,0.425 µM
15,CNC(=O)CN1CC2(CCN(c3cncc4ccccc34)C2=O)c2cc(Cl)ccc2S1(=O)=O (stereo not given),0.275 µM
16,Nc1cncc(NC(=O)C2CCOc3ccc(Cl)cc32)c1C1CC1 (stereo not given),4.95 µM
17,CN(C)C(=O)c1cc2c(NC(=O)C3CCOc4ccc(Cl)cc43)cncc2s1 (stereo not given),0.399 µM
18,O=C(Cc1cc(Cl)cc(Nc2ccc(OCc3ccccn3)c(Cl)c2)c1)Nc1cncc2ccccc12,2.09 µM
19,Cc1cc2ncc(C(=O)Nc3ccc4oc(C)nc4c3)c(C)n2n1,> 99.5 µM
20,Cc1ccncc1NC(=O)Cc1cccc(C#N)c1,63.7 µM and 59 µM
21,O=C(CC1(C(=O)Nc2cncc3ccccc23)CCOc2ccc(Cl)cc21)N1CCN(CC(F)(F)CO)CC1 (stereo not given),7.28 µM
22,CN(CC#N)S(=O)(=O)N1Cc2ccc(Cl)cc2C2(CCN(c3cncc4ccccc34)C2=O)C1 (stereo not given),0.407 µM
23,N#Cc1cc(Cl)c(Nc2cc(Cl)cc(CC(=O)Nc3cncc4ccccc34)c2)c(Cl)c1,1.79 µM
24,Cc1[nH]ncc1CC(=O)Nc1cccc(Cl)c1,54.6 µM
25,COc1ccccc1NCCNC(=O)c1cc(=O)[nH]c2ccccc12,> 99.5 µM

row,SMILES,IC50
1,CC(C)(C)c1ccc(N(C(=O)c2ccco2)C(C(=O)N2CCOCC2)c2cccnc2)cc1 (stereo not given),41 µM
2,Cc1cccc2ncc(NC(=O)Cc3cccc(Cl)c3)n12,5.54 µM
3,Cc1ccncc1NC(=O)CN1CCC(C)CC1,49.2 µM
4,O=C(NCc1ccc2c(c1)OCO2)c1nc(S(=O)(=O)Cc2ccccc2)ncc1Cl,1.4 µM
5,O=C(Cc1cccc(Cl)c1)Nc1cncc2cc(C(F)F)ccc12,2.25 µM
6,O=C(Nc1cncc2ccccc12)C1CN(S(=O)(=O)N2CCCC2CO)Cc2ccc(Cl)cc21 (stereo not given),1.14 µM
7,COc1ccc(NC(=O)[C@@H]2CN(C(=O)CCl)CCN2S(=O)(=O)c2ccsc2)cc1 (stereo in doubt),0.45 µM
8,N#Cc1c(Cl)cccc1Nc1cc(Cl)cc(CC(=O)Nc2cncc3ccccc23)c1,1.93 µM
9,Cc1ccnnc1NC(=O)Cc1cccc(Cl)c1,> 99.5 µM
10,Cc1ccccc1CC(=O)Nc1cncc2ccccc12,29.5 µM
11,O=C(Cc1cc(Cl)cc(Nc2ncc(Br)c(C(F)(F)F)n2)c1)Nc1cncc2ccccc12,1.84 µM
12,O=C(C[C@@]1(C(=O)Nc2cncc3ccccc23)CCOc2ccc(Cl)cc21)N1CCN(C2CCOC2)CC1 (stereo in doubt),46.5 µM
13,O=C(Cc1cccc(Cl)c1)Nc1cccnc1,53.7 µM
14,CC(C)(C)c1ccc(N(C(=O)c2cncs2)C(C(=O)NCCc2cccc(F)c2)c2cccnc2)cc1 (stereo not given),24.2 µM
15,Nc1nn(C(=O)Cc2cccc(Cl)c2)c2ccccc12,> 99.5 µM
16,N#Cc1nccn1CCCc1cccc(Cl)c1,> 99.5 µM
17,O=C(NCCc1cccc(F)c1)C(c1cccnc1)N(C(=O)c1ccco1)c1ccc(C2CCCC2)cc1 (stereo not given),0.282 µM
18,O=C(NCCc1cccc(F)c1)C(c1cccnc1)N(C(=O)c1cocn1)C1CCN(c2ccccc2F)C1 (stereo not given),> 99.5 µM
19,C=CC(=O)N(c1ccc(C(C)(C)C)cc1)C(C(=O)NCCSC)c1cccnc1 (stereo not given),20.2 µM
20,N#CC1(CS(=O)(=O)N2Cc3ccc(Cl)cc3C(C(=O)Nc3cncc4c[nH]nc34)C2)CC1 (stereo not given),1.05 µM
21,Cc1ccc(-n2c(C)c(C)n3c4c(=O)n(CCCO)c(=O)n(C)c4nc23)cc1Cl,> 99.5 µM
22,COc1ccc(N(C(C)=O)c2cc(Cl)cc(CC(=O)Nc3cncc4ccccc34)c2)cc1N,2.71 µM
23,O=C(Cc1cc(Cl)cc2c1OCC2)Nc1cncc2ccccc12,1.13 µM and 1.87 µM
24,Cc1ccc(N(Cc2cccc(Cl)c2)C(=O)Cn2nnc3ccccc32)cc1,2.33 µM
25,COC(=O)[C@H]1C[C@@H](NC(=O)C(c2cccnc2)N(C(=O)c2cocn2)c2ccc(C(C)(C)C)cc2)CN1C(=O)OC(C)(C)C (stereo in doubt),5.32 µM
